Laboratory results as given in ChEMBL document CHEMBL4689842, “EUbOPEN Chemogenomics Library wave 1” (2021).

Columns and labels:
Type in all cases: toxicity, cell-based
HEK-293T = assay: Incucyte cell viability with HEK293T; conditions: human, 10 µM, compound concentration 10 uM
Fibroblast = assay: Incucyte cell viability with human fibroblast; conditions: 10 µM, compound concentration 10 uM
U2OS = assay: Incucyte cell viability with U2OS; conditions: human, 10 µM, compound concentration 10 uM
[1] = 0 h, replicate number 1, timepoint 0 hours
[2] = 0 h, replicate number 2, timepoint 0 hours
[3] = 6 h, replicate number 1, timepoint 6 hours
[4] = 12 h, replicate number 2, timepoint 12 hours
[5] = 24 h, replicate number 1, timepoint 24 hours
[6] = 18 h, replicate number 2, timepoint 18 hours
[7] = 12 h, replicate number 1, timepoint 12 hours
[8] = 18 h, replicate number 1, timepoint 18 hours
[9] = 24 h, replicate number 2, timepoint 24 hours
[10] = 6 h, replicate number 2, timepoint 6 hours
Note: filed as whole numbers so only -1 and 0 and 1 occur.

| SMILES | Growth Rate (HEK-293T; [1]) | Growth Rate (HEK-293T; [2]) | Growth Rate (HEK-293T; [3]) | Growth Rate (HEK-293T; [5]) | Growth Rate (Fibroblast; [1]) | Growth Rate (Fibroblast; [5]) | Growth Rate (U2OS; [1]) | Growth Rate (U2OS; [3]) | Growth Rate (U2OS; [7]) | Growth Rate (U2OS; [8]) | Growth Rate (U2OS; [5]) | Growth Rate (U2OS; [9]) | Growth Rate (HEK-293T; [7]) | Growth Rate (HEK-293T; [8]) | Growth Rate (HEK-293T; [9]) | Growth Rate (Fibroblast; [3]) | Growth Rate (Fibroblast; [7]) | Growth Rate (Fibroblast; [8]) | Growth Rate (U2OS; [10]) | Growth Rate (Fibroblast; [2]) | other results |
| --- | --- | --- | --- | --- | --- | --- | --- | --- | --- | --- | --- | --- | --- | --- | --- | --- | --- | --- | --- | --- | --- |
| O=C(Nc1cccnn1)N1CC(C/C=C/c2cncc(Oc3ccc(C(F)(F)F)cn3)n2)C1 | 0 | 1 | 0 | 1 | 0 | 1 | 0 | 0 | 1 | 1 | 1 | 0 |  |  |  |  |  |  |  |  | Growth Rate (HEK-293T; [4]): 1; Growth Rate (Fibroblast; [4]): 1; Growth Rate (Fibroblast; [6]): 1; Growth Rate (U2OS; [2]): 1; Growth Rate (U2OS; [6]): 0 |
| COc1cc(-c2cn(C)c(=O)c3cnccc23)c(OC)cc1CN(C)C | 1 |  |  | 0 | 0 | 0 | 0 | 0 | 1 | 0 | 1 |  | 1 | 0 | 1 | 0 | 0 | 0 | 1 |  | Growth Rate (HEK-293T; [10]): 1; Growth Rate (Fibroblast; [10]): 1; Growth Rate (U2OS; [6]): 1 |
| CC(=O)C1=C(C)N(c2cccc(C(F)(F)F)c2)C(=O)N[C@@H]1c1ccc(C#N)nc1 [BAY-678] | 0 | 1 |  | 1 | 1 | 0 | 0 | 0 | 0 | 0 | 0 |  |  | 1 |  | 1 | 0 | 0 |  | 0 | Growth Rate (Fibroblast; [10]): 0; Growth Rate (U2OS; [4]): 1 |
| O=C(NS(=O)(=O)c1ccc(NCC2CCOCC2)c([N+](=O)[O-])c1)c1ccc(N2CCN(Cc3ccc(C(F)(F)F)cc3-c3ccc(Cl)cc3)CC2)cc1Oc1cnc2[nH]ccc2c1 [A-1210227] | 0 |  | 0 |  | 0 | 1 | 0 | 0 | 1 | 0 | 1 | 0 |  |  | 1 | 1 | 1 | 1 |  |  | Growth Rate (U2OS; [4]): 0 |
| CC(C)C[C@H](CO)Nc1nc(S[C@@H](C)c2ccccc2)nc2nc(N)sc12 [AZD-8797] | 1 | 0 | 0 | 0 | 1 | 0 |  | 0 | 0 | 0 | 0 |  | 0 | 0 |  | 0 | 0 | 0 |  | 0 | Growth Rate (HEK-293T; [10]): 1; Growth Rate (HEK-293T; [4]): 1; Growth Rate (Fibroblast; [4]): 1; Growth Rate (Fibroblast; [6]): 1; Growth Rate (Fibroblast; [9]): 1 |
| COc1ccnc(N2CCC3(CCCN(Cc4c[nH]c5ccccc45)C3=O)CC2)n1 | 0 |  | 1 | 1 | 0 | 0 | 1 |  | 1 | 1 | 0 |  | 1 | 1 | 0 | 0 | 0 | 0 | 0 |  | Growth Rate (HEK-293T; [4]): 0; Growth Rate (HEK-293T; [6]): 0; Growth Rate (U2OS; [4]): 0 |
| Cc1ccc(-c2cnc([C@@]3(O)CC[C@H](C(=O)O)C(C)(C)C3)s2)cc1Nc1cccc(C(F)(F)F)n1 [MRL-SYKi-NC] | 0 | 1 | 0 | 1 |  | 0 | 0 | 0 | 0 | 0 | 0 | 1 | 1 | 1 | 0 | 0 | 0 | 0 |  | 0 | Growth Rate (HEK-293T; [4]): 0; Growth Rate (U2OS; [4]): 1; Growth Rate (U2OS; [6]): 1 |
| CNC[C@H](O)c1cccc(O)c1 [PHENYLEPHRINE] | 0 |  | 0 | 1 | 1 |  |  |  | 1 | 1 | 1 |  | 0 | 0 | 0 |  | 1 |  | 0 | 0 | Growth Rate (Fibroblast; [6]): 1; Growth Rate (U2OS; [2]): 0 |
| CCCc1c(OCCCOc2ccc(OCC(=O)O)cc2)ccc(C(C)=O)c1O | 1 | 0 | 1 | 1 | 0 | 1 | 0 |  | 0 | 1 | 0 | 1 | 1 | 1 |  | 1 | 1 | 1 | 1 | 1 | Growth Rate (HEK-293T; [10]): 0; Growth Rate (Fibroblast; [10]): 0; Growth Rate (U2OS; [2]): 1; Growth Rate (U2OS; [4]): 1 |
| Cc1ccc2nc(CNCCCOc3ccccc3)cc(O)c2c1 [UCSF924] | 0 | 1 | 0 | 0 |  | 0 | 0 | 0 | 0 | 0 | 0 |  | 0 | 0 |  | 0 | 0 | 0 |  | 1 | Growth Rate (Fibroblast; [10]): 1 |
| CN1CCN(c2cnc3c(C4CCN(C(=O)c5ccc(OC(F)(F)F)cc5N)CC4)ncnc3c2)CC1 [BAY-885] | 0 | 1 |  |  | 1 | 0 | 0 | 0 | 0 | 0 | 0 | 1 |  |  | 1 | 0 | 1 | 0 | 1 | 0 | Growth Rate (Fibroblast; [6]): 1; Growth Rate (Fibroblast; [9]): 1; Growth Rate (U2OS; [4]): 1; Growth Rate (U2OS; [6]): 1 |
| O=C1NC(c2ccccn2)Sc2ccccc21 (stereo unspecified) [BTZO-4] | 1 |  | 0 | 1 | 0 | 0 | 0 | 0 | 0 | 0 | 0 | 1 | 0 | 0 | 0 | 1 | 1 | 1 |  |  | Growth Rate (HEK-293T; [6]): 1; Growth Rate (Fibroblast; [9]): 1; Growth Rate (U2OS; [4]): 1; Growth Rate (U2OS; [6]): 1 |
| CC(C)OC(=O)C1=CN(C(=O)c2ccc(F)c(F)c2)CC(C)(C)c2c1[nH]c1ccccc21 [TUROFEXORATE ISOPROPYL] | 0 |  | 0 | 0 | 0 | 0 | 0 |  | 0 | 0 | 0 | 1 | 0 | 0 |  | 0 | 0 | 0 |  |  | Growth Rate (U2OS; [6]): 1 |
| Cc1c(NC(=O)c2cc(C(N)=O)nc3cc(F)ccc23)c(C(F)(F)F)nn1Cc1ccc(C#N)cc1 [BAY-876] |  | 0 | 0 | 0 | 0 | 0 | 1 | 1 | 0 | 0 | 0 |  | 0 | 0 |  | 0 | 0 | 0 | 0 |  | Growth Rate (U2OS; [2]): 0 |
| Cc1c(C(=O)O)cc(-c2ccc(C3CCNCC3)cc2)c2ccc(-c3ccc(C(F)(F)F)cc3)cc12.Cl |  | 0 | 0 | 0 | 0 | 0 | 0 |  | 1 | 0 | 0 | 1 | 0 | 0 |  | 0 | 0 | 0 |  | 1 | Growth Rate (Fibroblast; [10]): 1; Growth Rate (U2OS; [6]): 1 |
| C[C@@H](c1cccc(C#N)c1)n1cc(Cl)cc(C(N)=O)c1=N.Cl | 0 |  | 1 | 1 | 0 | 1 | 0 |  | 1 | 1 | 1 |  | 0 | 1 |  | 1 |  | 1 |  | 1 | Growth Rate (HEK-293T; [4]): 1; Growth Rate (Fibroblast; [10]): 0; Growth Rate (Fibroblast; [4]): 0; Growth Rate (Fibroblast; [9]): 0 |
| COC1CCN(c2cccc(-c3cc(NC(C)=O)nc(-n4nc(C)cc4C)n3)n2)CC1 | 0 |  | 0 | 0 | 0 | 0 | 0 |  | 0 | 0 | 0 |  | 0 | 0 |  | 1 | 1 | 1 | 0 |  | Growth Rate (Fibroblast; [10]): 0; Growth Rate (Fibroblast; [4]): 0; Growth Rate (Fibroblast; [6]): 0 |
| COc1cc(N2CCC(N3CCN(C)CC3)CC2)ccc1Nc1ncc(Cl)c(Nc2ccccc2P(C)(C)=O)n1 [BRIGATINIB] |  |  | 0 | 1 | 1 | 0 | 0 | 0 | 0 | 0 | 0 |  | 0 | 1 | 0 | 0 | 0 | 0 |  |  | Growth Rate (U2OS; [4]): 1 |
| C[C@]12CCC(=O)C=C1CC[C@@H]1[C@@H]2[C@@H](O)C[C@]2(C=O)[C@@H](C(=O)CO)CC[C@@H]12 [ALDOSTERONE] | 0 |  |  | 1 | 0 | 1 | 0 |  | 1 | 1 | 1 |  | 1 | 1 |  | 0 | 1 | 1 | 1 | 1 | Growth Rate (HEK-293T; [10]): 1; Growth Rate (HEK-293T; [4]): 0; Growth Rate (Fibroblast; [4]): 0; Growth Rate (Fibroblast; [6]): 0 |
